3 molecules from ChEMBL document CHEMBL1147311, “Plant antimutagenic agents, 7. Structure and antimutagenic properties of cymobarbatol and 4-isocymobarbatol, new cymopols from green alga (Cymopolia barbata)” (J Nat Prod, 1989) can be followed below.

Data set [1] concerns Salmonella typhimurium. In words: Toxicity in Salmonella Typhimurium T98 at 75 to 300 ug/plate in presence of histidine. Type of data set: organism-based, Salmonella enterica subsp. enterica serovar Typhimurium.
Data set [2] deals with Salmonella typhimurium. In words: Antimutagenic activity in Salmonella Typhimurium T98 assessed as inhibition of 2-aminoanthracene-induced mutation at 150 ug/plate. Type of data set: functional, organism-based. The note with it: Salmonella enterica subsp. enterica serovar Typhimurium.
Data set [3] deals with Salmonella typhimurium. In words: Antimutagenic activity in Salmonella Typhimurium T98 assessed as inhibition of 2-aminoanthracene-induced mutation at 75 ug/plate. The note with it: Salmonella enterica subsp. enterica serovar Typhimurium. Type of data set: functional, organism-based.
The subject of data set [4] is Salmonella typhimurium. In words: Antimutagenic activity in Salmonella Typhimurium T98 assessed as inhibition of 2-aminoanthracene-induced mutation at 300 ug/plate. Type of data set: functional, organism-based. Conditions: Salmonella enterica subsp. enterica serovar Typhimurium.
For data set [5], the system named is Salmonella typhimurium. In words: Toxicity in Salmonella Typhimurium T100 at 75 to 300 ug/plate in presence of histidine. Type of data set: organism-based, Salmonella enterica subsp. enterica serovar Typhimurium.
Data set [6] deals with Salmonella typhimurium. The data set is described as follows: Antimutagenic activity in Salmonella Typhimurium T100 assessed as inhibition of ethyl methanesulfonate-induced mutation at 32.5 to 300 ug/plate in presence of Ames S9 fractions. Type of data set: functional, Salmonella enterica subsp. enterica serovar Typhimurium.
In data set [7] the test system is Salmonella typhimurium. In words: Toxicity in Salmonella Typhimurium T98 at 75 to 600 ug/plate in presence of histidine. Type of data set: organism-based, Salmonella enterica subsp. enterica serovar Typhimurium.
Data set [8] deals with Salmonella typhimurium. The data set is described as follows: Toxicity in Salmonella Typhimurium T100 at 75 to 600 ug/plate in presence of histidine. Type of data set: organism-based, Salmonella enterica subsp. enterica serovar Typhimurium.

Molecules are shown by their SMILES. The source made the active and inactive calls. The rule behind the calls is not given here.

`CC1(C)[C@@H](Br)CC[C@]2(C)Oc3cc(Br)c(O)cc3C[C@@H]12`: the Activity result with Salmonella typhimurium [1] and in the data set on Salmonella typhimurium [5] was “Non-toxic” in each case. Also, the outcome with Salmonella typhimurium [2], in the data set with Salmonella typhimurium [3] and in the data set with Salmonella typhimurium [4] was Active.
Turning to `CC1(C)[C@@H](Br)CC[C@@]2(C)Oc3cc(Br)c(O)cc3C[C@@H]12` [CYMOBARBATOL], the “inhibition (INH)” value in the data set on Salmonella typhimurium [6] was 80%. In addition, the Activity result with Salmonella typhimurium [1] and in the data set on Salmonella typhimurium [5] was “Non-toxic” in each case. The outcome in the data set with Salmonella typhimurium [2] and with Salmonella typhimurium [4] was Active.
For the molecule `CC(C)=CCC/C(C)=C/Cc1cc(O)c(Br)cc1O` [CYMOPOL], the Activity result in the data set with Salmonella typhimurium [7] and in the data set with Salmonella typhimurium [8] was “Toxic” each time.
